The text below walks through data of patent US8569267B2, “Tetracyclic tetrahydrofuran derivatives containing cyclic amine side chain” (Janssen Pharmaceutica, NV, priority 2005, dated 2013).

Test [1] addresses T1, human cloned 5-HT2C receptor, expressed in CHO cells (Homo sapiens, UniProt P28335).
T1 construct: expressed in transfected cells; host or cells: CHO cells
T1 sequence (P28335 33-458): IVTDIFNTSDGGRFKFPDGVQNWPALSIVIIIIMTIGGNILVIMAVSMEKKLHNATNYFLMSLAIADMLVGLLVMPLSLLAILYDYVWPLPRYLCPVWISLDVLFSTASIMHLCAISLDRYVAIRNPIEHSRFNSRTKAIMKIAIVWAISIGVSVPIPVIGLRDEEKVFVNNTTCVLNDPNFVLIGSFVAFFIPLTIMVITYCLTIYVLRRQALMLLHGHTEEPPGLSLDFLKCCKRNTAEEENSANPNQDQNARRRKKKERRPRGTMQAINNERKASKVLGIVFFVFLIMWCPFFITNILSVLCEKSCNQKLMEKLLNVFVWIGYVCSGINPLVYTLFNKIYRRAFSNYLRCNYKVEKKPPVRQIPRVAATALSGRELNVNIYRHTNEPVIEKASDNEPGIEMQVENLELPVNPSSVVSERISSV
The test can be described thus: In vitro binding affinity for 5-HT2C receptor ([3H]mesulergine radioligand binding). The conditions noted are these: human cloned 5-HT2C receptor, read-out: 5-HT2C pIC50 (converted). The method, boiled down: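 Competition radioligand binding: varying test-compound concentrations incubated with receptor preparation and radioligand to binding equilibrium. Bound radioactivity separated from free and counted; affinity inferred from concentration-dependent inhibition of radioligand binding.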

Test [2] addresses T2, human Dopamine D2L receptor (Homo sapiens, UniProt P14416).
T2 construct: expressed in transfected cells; host or cells: CHO cells
Put plainly: In vitro binding affinity for human D2L receptor ([3H]Spiperone binding). The conditions noted are these: human D2L receptor-transfected CHO cell membranes, read-out: D2L pIC50 (converted). The method, boiled down:
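Membranes from CHO cells transfected with the receptor were incubated with [3H]Spiperone (diluted to 2 nmol/L before addition) and compound for 30 min at 37° C. Buffer was Tris-HCl, pH 7.7, with NaCl, CaCl2, MgCl2 and KCl, and non-specific binding was defined with 10^−6 mol/l Butaclamol. Bound radioactivity was collected by filtration, counted by scintillation, and competition curves calculated as percent specific binding.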

The target of test [3] is T3, human cloned 5-HT2A receptor, expressed in L929 cells (Homo sapiens, UniProt P28223).
T3 construct: expressed in transfected cells; host or cells: L929 cells
T3 sequence (P28223 whole entry): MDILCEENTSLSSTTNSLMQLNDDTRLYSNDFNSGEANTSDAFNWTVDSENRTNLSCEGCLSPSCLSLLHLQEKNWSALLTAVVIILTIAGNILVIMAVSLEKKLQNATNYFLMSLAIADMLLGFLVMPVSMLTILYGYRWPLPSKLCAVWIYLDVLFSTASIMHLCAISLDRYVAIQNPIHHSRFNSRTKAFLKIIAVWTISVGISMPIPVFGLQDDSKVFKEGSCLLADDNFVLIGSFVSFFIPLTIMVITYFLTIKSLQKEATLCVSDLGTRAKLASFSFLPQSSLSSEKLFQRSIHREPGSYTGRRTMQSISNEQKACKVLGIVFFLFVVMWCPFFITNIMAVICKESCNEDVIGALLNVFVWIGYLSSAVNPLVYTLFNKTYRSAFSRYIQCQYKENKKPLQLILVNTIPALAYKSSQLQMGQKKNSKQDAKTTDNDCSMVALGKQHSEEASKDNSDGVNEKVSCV
The test can be described thus: In vitro binding affinity for 5-HT2A receptor ([125I]R91150 radioligand binding). The following applies: human cloned 5-HT2A receptor in L929 cells, [125I]R91150; read-out: 5-HT2A pIC50 (converted). The procedure, abridged: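 Competition radioligand binding to human cloned 5-HT2A receptor expressed in L929 cells, using [125I]R91150 with test compound at various concentrations. At equilibrium, receptor-bound radioactivity was separated from free and counted. Affinity reflects inhibition of radioligand binding.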

The target of test [4] is T4, NET (norepinephrine transporter) (Rattus norvegicus, UniProt Q63380).
T4 construct: Cortex from rat brain was collected and homogenised; from tissue; host or cells: rat brain cortex
T4 sequence (Q63380 1-617): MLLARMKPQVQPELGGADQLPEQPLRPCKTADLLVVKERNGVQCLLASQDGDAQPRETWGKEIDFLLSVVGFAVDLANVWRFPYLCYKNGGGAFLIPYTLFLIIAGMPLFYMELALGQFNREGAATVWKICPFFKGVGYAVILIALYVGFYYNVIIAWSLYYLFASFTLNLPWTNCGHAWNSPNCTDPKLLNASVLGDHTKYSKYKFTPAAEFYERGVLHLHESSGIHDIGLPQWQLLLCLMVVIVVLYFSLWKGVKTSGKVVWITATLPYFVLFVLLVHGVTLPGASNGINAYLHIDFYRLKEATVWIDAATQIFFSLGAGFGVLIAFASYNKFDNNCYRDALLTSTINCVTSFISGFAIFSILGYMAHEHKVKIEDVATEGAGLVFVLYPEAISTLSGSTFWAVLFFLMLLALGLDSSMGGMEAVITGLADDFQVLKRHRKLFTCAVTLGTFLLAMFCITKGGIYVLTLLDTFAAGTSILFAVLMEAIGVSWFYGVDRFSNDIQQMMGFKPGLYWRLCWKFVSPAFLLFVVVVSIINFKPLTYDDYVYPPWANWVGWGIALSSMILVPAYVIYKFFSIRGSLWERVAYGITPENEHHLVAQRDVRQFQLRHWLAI
The test can be described thus: In vitro determination of NET reuptake inhibition ([3H]Nixosetine binding, rat brain cortex). The following applies: rat brain cortex, read-out: NET pIC50 (converted). The method, boiled down: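 Rat cortex homogenised in Tris 50 mM, NaCl 120 mM, KCl 5 mM, pH 7.4 was used for competition binding against [3H]nisoxetine. Bound radioligand was collected by filtration on GF/B filters and counted by scintillation. Percentage specific binding and competition curves were derived.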

Each structure is given as a SMILES string.

T2 sequence (P14416 whole entry): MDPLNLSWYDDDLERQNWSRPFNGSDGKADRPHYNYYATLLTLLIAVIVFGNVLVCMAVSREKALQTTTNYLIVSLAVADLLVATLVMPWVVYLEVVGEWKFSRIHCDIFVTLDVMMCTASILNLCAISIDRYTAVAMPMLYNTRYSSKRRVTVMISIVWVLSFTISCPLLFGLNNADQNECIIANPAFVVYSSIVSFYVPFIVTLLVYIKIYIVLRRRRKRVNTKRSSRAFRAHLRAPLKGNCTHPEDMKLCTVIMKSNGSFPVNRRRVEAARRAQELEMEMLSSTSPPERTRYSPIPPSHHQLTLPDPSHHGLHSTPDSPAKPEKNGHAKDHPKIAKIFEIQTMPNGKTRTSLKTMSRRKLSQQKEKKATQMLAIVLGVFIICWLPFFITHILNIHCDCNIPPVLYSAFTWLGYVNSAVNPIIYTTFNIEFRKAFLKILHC

In the case of `Fc1ccc2c(c1)C1OC(CN3CCN(c4ncccc4C(F)(F)F)CC3)CC1c1ccccc1C2` (stereo not drawn) [Compound 121], the IC50 is 77.6 nM in test [1], 77.6 nM in test [2], 13.2 nM in test [3] and 3.55 µM in test [4].

For `Fc1ccc2c(c1)C1OC(CN3CCN(c4cnccn4)CC3)CC1c1ccccc1C2` (stereo not drawn) [Compound 123], the IC50 in test [1] is 7.24 nM; in test [2] it was 40.7 nM; in test [3], 2.75 nM; in test [4] it was 2.82 µM.

As for `CSc1nccc(N2CCN(CC3CC4c5ccccc5Cc5ccc(F)cc5C4O3)CC2)n1` (stereo not drawn) [Compound 124], the IC50 in test [1] is 30.9 nM; in test [2] it was 47.9 nM; in test [3] it was 8.91 nM; in test [4], 2.29 µM.

As for `Fc1ccc2c(c1)C1OC(CN3CCN(c4nc5ccccc5s4)CC3)CC1c1ccccc1C2` (stereo not drawn) [Compound 125], the IC50 in test [1] is 77.6 nM; in test [2], 257 nM; in test [3], 17.4 nM; in test [4] it was > 10 µM.

In the case of `Fc1ccc2c(c1)C1OC(CN3CCN(c4nc5ccccc5o4)CC3)CC1c1ccccc1C2` (stereo not drawn) [Compound 126], the IC50 in test [1] is 79.4 nM; in test [2], 214 nM; in test [3], 8.91 nM; in test [4] it was 9.77 µM.

Regarding `Fc1ccc2c(c1)C1OC(CN3CCN(c4nc5ccccc5[nH]4)CC3)CC1c1ccccc1C2` (stereo not drawn) [Compound 127], the IC50 in test [1] was 4.17 nM; in test [2] it was 22.4 nM; in test [3] it was 0.251 nM; in test [4] it was 3.8 µM.

As to `OCCC1CN(C[C@H]2C[C@@H]3c4ccccc4Cc4ccc(F)cc4[C@@H]3O2)CCO1` (stereo partly drawn) [Compound 129], the IC50 in test [1] is 7.59 nM; in test [2], 29.5 nM; in test [3], < 10 nM; in test [4], 0.417 µM.

As for `COCCC1CN(C[C@H]2C[C@@H]3c4ccccc4Cc4ccc(F)cc4[C@@H]3O2)CCO1` (stereo partly drawn) [Compound 130], the IC50 is 5.37 nM in test [1], 21.9 nM in test [2], < 10 nM in test [3] and 3.55 µM in test [4].

Turning to `CN(C)CCC1CN(C[C@H]2C[C@@H]3c4ccccc4Cc4ccc(F)cc4[C@@H]3O2)CCO1` (stereo partly drawn) [Compound 132], the IC50 in test [1] was 33.1 nM; in test [2] it was 389 nM; in test [3], 33.1 nM; in test [4] it was 5.75 µM.

For `O=C(O)CC1CN(C[C@H]2C[C@@H]3c4ccccc4Cc4ccc(F)cc4[C@@H]3O2)CCO1` (stereo partly drawn) [Compound 134], the IC50 was 1.38 nM in test [1], 41.7 nM in test [2], < 10 nM in test [3] and 0.0427 µM in test [4].

Turning to `CCOC(=O)CC1CN(C[C@H]2C[C@@H]3c4ccccc4Cc4ccc(F)cc4[C@@H]3O2)CCO1` (stereo partly drawn) [Compound 135], the IC50 in test [1] was 16.6 nM; in test [2], 32.4 nM; in test [3], 11.2 nM; in test [4], 2.45 µM.

On to `CN(C)C(=O)CC1CN(C[C@H]2C[C@@H]3c4ccccc4Cc4ccc(F)cc4[C@@H]3O2)CCO1` (stereo partly drawn) [Compound 136], for which the IC50 in test [1] was 3.31 nM; in test [2], 24.5 nM; in test [3], 1.58 nM; in test [4], 0.0708 µM.

As to `OCC1CCCN(C[C@H]2C[C@@H]3c4ccccc4Cc4ccc(F)cc4[C@@H]3O2)C1` (stereo partly drawn) [Compound 147, [2R-(2α, 3aα, 12bβ)]-(3′RS)-[1-(11-fluoro-3,3a,8,12b-tetrahydro-2H-1-oxa-dibenzo[e,h]azulen-2-ylmethyl)-piperidin-3-yl]-methanol.oxalate (1:1)], the IC50 in test [1] is 1.26 nM; in test [2], 4.79 nM; in test [3], 1.1 nM; in test [4], > 10 µM.

Regarding `OCCC1CCN(C[C@H]2C[C@@H]3c4ccccc4Cc4ccc(F)cc4[C@@H]3O2)CC1` [Compound 154], the IC50 in test [1] was 1.62 nM; in test [2], 1.35 nM; in test [3], 0.912 nM; in test [4] it was > 10 µM.

For the compound `OCCCC1CCN(CC2CC3c4ccccc4Cc4ccc(F)cc4C3O2)CC1` (stereo not drawn) [Compound 155, [2R-(2α, 3aα, 12bβ)]3-[1-(11-fluoro-3,3a,8,12b-tetrahydro-2H-1-oxa-dibenzo[e,h]-azulen-2-ylmethyl)-piperidin-4-yl]-propan-1-ol.oxalate (1:1)], the IC50 in test [1] was 2.88 nM; in test [2] it was 1.48 nM; in test [3], 1.51 nM; in test [4] it was 1.86 µM.

Consider `CCOC(=O)C=C1CCN(CC2CC3c4ccccc4Cc4ccc(F)cc4C3O2)CC1` (stereo not drawn) [Compound 165], for which the IC50 in test [1] was 27.5 nM; in test [2] it was 38.9 nM; in test [3] it was 10.7 nM; in test [4] it was 3.63 µM.

Consider `N#CCC1CCN(CC2CC3c4ccccc4Cc4ccc(F)cc4C3O2)CC1` (stereo not drawn) [Compound 168], for which the IC50 in test [1] was 9.33 nM; in test [2] it was 2.82 nM; in test [3], 3.89 nM; in test [4], > 10 µM.

For `N#CCCC1CCN(CC2CC3c4ccccc4Cc4ccc(F)cc4C3O2)CC1` (stereo not drawn) [Compound 170], the IC50 in test [1] is 2.63 nM; in test [2], 1.51 nM; in test [3], 1.82 nM; in test [4], 4.27 µM.

For `Fc1ccc2c(c1)C1OC(CN3CCCC(C4=NCCN4)C3)CC1c1ccccc1C2` (stereo not drawn) [Compound 171], the IC50 in test [1] was 18.2 nM; in test [2], 282 nM; in test [3], 28.2 nM; in test [4] it was 1.41 µM.

Consider `Fc1ccc2c(c1)C1OC(CN3CCC(N4CCCCC4)CC3)CC1c1ccccc1C2` (stereo not drawn) [Compound 172], for which the IC50 in test [1] was 15.8 nM; in test [2] it was 43.7 nM; in test [3], 15.1 nM; in test [4], 6.76 µM.

As to `CC(C)(C)NC(=O)C1CCN(CC2CC3c4ccccc4Cc4ccc(F)cc4C3O2)CC1` (stereo not drawn) [Compound 173], the IC50 in test [1] was 5.75 nM; in test [2], 13.2 nM; in test [3], 0.724 nM; in test [4] it was 6.46 µM.

For `N#CCCNC(=O)C1CCN(CC2CC3c4ccccc4Cc4ccc(F)cc4C3O2)CC1` (stereo not drawn) [Compound 174], the IC50 is 2.19 nM in test [1], 15.1 nM in test [2], 1.62 nM in test [3] and > 10 µM in test [4].

For the compound `O=C(NCCCO)C1CCN(CC2CC3c4ccccc4Cc4ccc(F)cc4C3O2)CC1` (stereo not drawn) [Compound 175], the IC50 in test [1] was 1.74 nM; in test [2] it was 18.2 nM; in test [3] it was 0.759 nM; in test [4], > 10 µM.

Turning to `C=CCN(C)C(=O)C1CCN(CC2CC3c4ccccc4Cc4ccc(F)cc4C3O2)CC1` (stereo not drawn) [Compound 177], the IC50 was 4.47 nM in test [1], 11.7 nM in test [2], < 10 nM in test [3] and 9.77 µM in test [4].

For the compound `CCCCCCCCCCNC(=O)C1CCN(C[C@H]2C[C@@H]3c4ccccc4Cc4ccc(F)cc4[C@@H]3O2)CC1` [Compound 178], the IC50 was 9.33 nM in test [1], 50.1 nM in test [2], < 10 nM in test [3] and > 10 µM in test [4].

Consider `O=C(NCC(O)CO)C1CCN(CC2CC3c4ccccc4Cc4ccc(F)cc4C3O2)CC1` (stereo not drawn) [Compound 179], for which the IC50 in test [1] was 3.8 nM; in test [2], 38 nM; in test [3] it was < 10 nM; in test [4], > 10 µM.

For `O=C(NCCCn1ccnc1)C1CCN(CC2CC3c4ccccc4Cc4ccc(F)cc4C3O2)CC1` (stereo not drawn) [Compound 180], the IC50 was 3.89 nM in test [1], 37.2 nM in test [2], 2.45 nM in test [3] and > 10 µM in test [4].

Turning to `O=C(NCCN1CCOCC1)C1CCN(CC2CC3c4ccccc4Cc4ccc(F)cc4C3O2)CC1` (stereo not drawn) [Compound 181], the IC50 was 7.59 nM in test [1], 57.5 nM in test [2], 4.79 nM in test [3] and > 10 µM in test [4].

Take `CSc1ccc(NC(=O)C2CCN(CC3CC4c5ccccc5Cc5ccc(F)cc5C4O3)CC2)cc1` (stereo not drawn) [Compound 183]: the IC50 is 1.15 nM in test [1], 25.7 nM in test [2], < 10 nM in test [3] and > 10 µM in test [4].

Turning to `COc1cc(OC)c(CNC(=O)C2CCN(CC3CC4c5ccccc5Cc5ccc(F)cc5C4O3)CC2)c(OC)c1` (stereo not drawn) [Compound 186], the IC50 is 2.34 nM in test [1], 7.08 nM in test [2], 2.4 nM in test [3] and 3.55 µM in test [4].
